Literature values in US20050142185A1, “Softgel formulations of bisphosphonates bone resorption inhibitors” (priority 2003, published 2005).

Columns and labels:
[1] = taken either concurrently with or 2 hours after breakfast
[2] = marketed tablet not taken with enough water, or patient not upright for about one-half hour after taking

- impairment of availability [1]: > 85%
SMILES: NCCCC(O)(P(=O)(O)O)P(=O)(O)O [alendronate, 4-amino-1-hydroxybutylidene-1,1-biphosphonic acid]
- side effects reported [2]: esophageal irritation and erosion
